Data reported in ChEMBL document CHEMBL1201862, “PubChem BioAssay data set” (2004).
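48-hour exposure; five concentrations; linearly interpolated endpoints. GI50: concentration for 50% inhibition of growth.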 Calls of active or inactive are those of the source. Cut-off read from the data, not from the text of the source: active = GI50 up to about 1.1 µM and inactive = higher.

Key:
Experiment in all cases: NCI tumour cell line growth inhibition, 48 h
A498 = tested on: A498
Hs-578T = tested on: Hs-578T
SF-295 = tested on: SF-295
KM12 = tested on: KM12
MDA-MB-231 = tested on: MDA-MB-231
IGROV-1 = tested on: IGROV-1
SK-MEL-28 = tested on: SK-MEL-28
NCI-H522 = tested on: NCI-H522
T47D = tested on: T47D
UO-31 = tested on: UO-31
K562 = tested on: K562
SNB-75 = tested on: SNB-75
OVCAR-4 = tested on: OVCAR-4
HOP-62 = tested on: HOP-62
CAKI-1 = tested on: CAKI-1
SK-MEL-5 = tested on: SK-MEL-5
OVCAR-8 = tested on: OVCAR-8
RXF 393 = tested on: RXF 393
ACHN = tested on: ACHN
Malme-3M = tested on: Malme-3M

Measured: GI50

O=C1CC(=O)NC(NN2C(=O)/C(=C/c3ccc(Cl)cc3)N=C2c2ccccc2)=N1
inactive: A498 16.9 µM | Hs-578T 14.3 µM | SF-295 14.5 µM | KM12 13 µM | MDA-MB-231 17.9 µM | IGROV-1 13.2 µM | SK-MEL-28 19.1 µM | NCI-H522 10.1 µM | T47D 28.6 µM | UO-31 16.3 µM | K562 9.62 µM | SNB-75 29.1 µM | OVCAR-4 5.64 µM | HOP-62 15.5 µM | CAKI-1 72.6 µM | SK-MEL-5 17.7 µM | OVCAR-8 14.5 µM | RXF 393 14.1 µM | ACHN 17.4 µM | Malme-3M 17.3 µM

O=c1[nH]c(=S)[nH]c(-c2ccccc2)c1Cc1c(O)ccc2ccccc12 [CAMBINOL]
inactive: A498 21.3 µM | Hs-578T 43.9 µM | SF-295 52 µM | KM12 30.6 µM | MDA-MB-231 38.6 µM | IGROV-1 33.7 µM | SK-MEL-28 39.2 µM | NCI-H522 8.89 µM | T47D 24.4 µM | UO-31 29.6 µM | K562 31.3 µM | SNB-75 25.6 µM | OVCAR-4 39.7 µM | HOP-62 64 µM | CAKI-1 25.5 µM | SK-MEL-5 21 µM | OVCAR-8 38 µM | RXF 393 29.8 µM | ACHN 34 µM | Malme-3M 7.98 µM

CC(C)(C)n1nc(C2CC2)cc1NC(=O)Nc1ccc(Cl)cc1
inactive: A498 > 100 µM | Hs-578T > 100 µM | SF-295 > 100 µM | KM12 > 100 µM | MDA-MB-231 > 100 µM | IGROV-1 > 100 µM | SK-MEL-28 > 100 µM | NCI-H522 > 100 µM | T47D > 100 µM | UO-31 > 100 µM | K562 > 100 µM | SNB-75 78 µM | OVCAR-4 > 100 µM | HOP-62 > 100 µM | CAKI-1 > 100 µM | SK-MEL-5 > 100 µM | OVCAR-8 > 100 µM | RXF 393 > 100 µM | ACHN > 100 µM | Malme-3M > 100 µM

Brc1ccc(-c2cn3ccncc3n2)cc1
inactive: A498 > 100 µM | Hs-578T > 100 µM | SF-295 > 100 µM | KM12 > 100 µM | MDA-MB-231 > 100 µM | IGROV-1 > 100 µM | SK-MEL-28 > 100 µM | NCI-H522 > 100 µM | T47D > 100 µM | UO-31 > 100 µM | K562 > 100 µM | SNB-75 > 100 µM | OVCAR-4 > 100 µM | HOP-62 > 100 µM | CAKI-1 > 100 µM | SK-MEL-5 > 100 µM | OVCAR-8 > 100 µM | RXF 393 > 100 µM | ACHN > 100 µM | Malme-3M > 100 µM

CN(C)CCNC(=O)c1cccc2nc3c(ccc4ccccc43)nc12
inactive: A498 2.95 µM | Hs-578T 3.62 µM | SF-295 2.56 µM | KM12 2.09 µM | MDA-MB-231 1.81 µM | IGROV-1 2.9 µM | SK-MEL-28 2.05 µM | NCI-H522 4.22 µM | T47D 6.11 µM | UO-31 3.38 µM | K562 1.52 µM | SNB-75 3.9 µM | OVCAR-4 2.21 µM | HOP-62 2.25 µM | CAKI-1 3.37 µM | SK-MEL-5 1.76 µM | OVCAR-8 1.73 µM | RXF 393 3.2 µM | ACHN 1.41 µM | Malme-3M 1.56 µM
